32 compounds from US6348487B1, “2-phenyl benzimidazole derivatives as MCP-1 antagonists” (Millennium Pharmaceuticals, Inc., priority 1996, dated 2002) can be followed below.

Usually IC50 stands for the concentration needed to halve the response being measured. High values mean a need for much substance, low ones inhibition by little substance. For orientation: melting point means the temperature, or range, at which the solid turns liquid.

“And” between values parts separate entries of the source, which are not always exact repeats. Equal entries are not always repeated.

In one data set the target is T1, MCP-1 receptor (Homo sapiens, UniProt P41597).
T1 construct: host or cells: THP-1 (human monocytic cell line), membrane preparation
T1 sequence (P41597 1-360 isoform P41597-2): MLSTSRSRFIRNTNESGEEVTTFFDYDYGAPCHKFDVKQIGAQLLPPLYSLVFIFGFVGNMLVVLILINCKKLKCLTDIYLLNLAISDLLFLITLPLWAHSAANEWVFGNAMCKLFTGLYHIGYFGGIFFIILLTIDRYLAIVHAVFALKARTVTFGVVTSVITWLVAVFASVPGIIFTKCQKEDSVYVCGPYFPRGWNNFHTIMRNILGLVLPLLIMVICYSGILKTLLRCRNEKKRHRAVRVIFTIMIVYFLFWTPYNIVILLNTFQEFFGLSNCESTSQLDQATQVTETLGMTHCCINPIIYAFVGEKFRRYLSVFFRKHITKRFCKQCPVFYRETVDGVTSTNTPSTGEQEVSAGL
Nature of the data set: MCP-1 Receptor Binding Assay (I125-labeled MCP-1, THP-1 cell membranes). The settings on record: THP-1 membranes, 0.2 nM I125-labeled MCP-1. As for the experimental part: Membranes used in the MCP-1 binding assay were prepared from THP-1 cells (human monocytic cell line source—American Type Culture Collection, Tumor Immunology Bank #202, Rockville, Md., accession no. ATCC TIB 202). Cells were harvested by centrifugation and washed twice in ice-cold PBS (phosphate-buffered saline) and the cell pellet was frozen at −80° C. in some cases. Cells were resuspended in ice-cold lysis buffer 5 mM HEPES (2-(4N-[2-hydroxyethyl]piperazin-1-yl)-N′-(2-ethanesulfonic acid), pH 7.5, 2 mM EDTA (ethylenediaminetetraacetic acid), 5 μg/mL each leupeptin, aprotinin, chymostatin (protease inhibitors), and 100 μg/mL PMSF (phenylmethane sulfonyl fluoride—also a protease inhibitor)) at a concentration of 5×10^7 cells/mL. The cell suspension was dounced 10-15 times using the B pestle (small pestle of tissue grinder—clearance is 0.07 mm; source—Fisher Scientific) on ice. Nuclei and debris were removed by centrifugation at 500-1000×g for 10 minutes at 4° C. The supernatant was transferred to a fresh tube and centrifuged at 25,000×g for 30 minutes at 4° C. The supernatant was aspirated and the pellet was resuspended in freezing buffer (10 mM HEPES, pH 7.5, 300 mM sucrose, 1 μg/mL each leupeptin, aprotinin, chymostatin, and 10 μg/mL PMSF) using a minihomogenizer until all clumps were resolved. Membranes were aliquoted and frozen at minus 70-85° C. until needed. Typical binding assays used 10-20 μg/well of total membrane protein as determined with a standard protein assay (e.g. Bradford protein assay, BioRad, Richmond, Calif.).
For binding, 10-20 μg of total membrane protein were included in the binding reaction along with 0.2 nM I^125-labeled MCP-1 (Amersham, Arlington Heights, Ill.) with or without unlabeled competitor MCP-1 (Peprotech, Rocky Hill, N.J.) (at 500 nM). Binding reactions were performed in a final volume of 100 μl in a binding buffer containing 10 mM HEPES, pH 7.2, 1 mM CaCl2, 5 mM MgCl2, 0.5% BSA (bovine serum albumin). After 30-60 minutes at room temperature, the binding reactions were filtered through GF/C filters (Whatman glass fiber filters, Type C) or GF/B unifilter plates (Packard) which had been pre-soaked with 0.3% polyethyleneimine and washed twice with binding buffer containing 0.5 M NaCl. Filters were dried and counted in a Beta-Plate scintillation counter using standard scintillation fluid. Final concentration of compound in the binding assay ranged from 0.05-100 μM. Compounds were dissolved in DMSO (dimethyl sulfoxide). Final concentrations of DMSO in the binding were kept constant at 0.5%.
IC50s were calculated using a non-linear 3-parameter logistic curve fit. IC50 means the concentration at which 50% inhibition is achieved. Negative controls contained the same amount of DMSO vehicle as used in wells containing compound. Positive control contained 250-500 nM cold competitor MCP-1 in DMSO vehicle. Non-specific binding (the level of bound ^125I-labeled MCP-1 in the presence of […] unlabeled MCP-1) was subtracted from all data prior to analysis.
`CCN(CC)CCN(C)c1ccc(-c2nc3cc(Cl)c(Cl)cc3[nH]2)cc1` gave an IC50 of 6.8 µM.

Compound `CN(CCN1CCCCC1)c1ccc(-c2nc3cc(Cl)c(F)cc3[nH]2)cc1` [drawing 12] had an IC50 of 9.6 µM.

Turning to `CN(CCN1CCCCC1)Cc1ccc(-c2nc3cc(Cl)c(Cl)cc3[nH]2)cc1`, the IC50 stood at 3.2 µM.

The compound `CN(CCN1CCCCC1)c1ccc(-c2nc3ccc(NCCCCCc4ccccc4)cc3[nH]2)cc1` displayed a half-inhibitory concentration (IC50) of 6.7 µM.

Compound `CN(CCN1CCCCC1)c1ccc(-c2nc3ccc(C(F)(F)F)cc3[nH]2)cc1` showed an IC50 of 15.5 µM.

For `CN(CCN1CCCCC1)c1ccc(-c2nc3ccc(Cl)cc3[nH]2)cc1` [drawing 11], the IC50 was determined as 5.9 µM.

As to `CN(CCN1CCCCC1)c1ccc(-c2nc3cc(Cl)c(Cl)cc3[nH]2)cc1` [drawing 9], the IC50 worked out at 13.4 µM. This IC50 is about 2.3-fold higher than that of the compound before.

In turn, `CN(CCN1CCCCC1)c1ccc(-c2nc3ccc(C(=O)c4ccccc4)cc3[nH]2)cc1` displayed an IC50 of 11.3 µM.

For `c1ccc(-c2ccc3nc(-c4ccc(NCCN5CCCCC5)cc4)[nH]c3c2)cc1`, the concentration for half-maximal inhibition (IC50) is 11.9 µM.

In the case of `CN(CCN1CCCCC1)c1ccc(-c2nc3ccc(C(C)(C)C)cc3[nH]2)cc1`, the IC50 worked out at 3.1 µM.

Regarding `CN(CCN1CCCCC1)c1ccc(-c2nc3ccc(Oc4ccc(Cl)c(Cl)c4)cc3[nH]2)cc1`, the IC50 was 6.4 µM. This IC50 lies about 2.1-fold higher than the previous one.

As to `CN(CCN1CCCCC1)c1ccc(-c2nc3ccc(-c4ccccc4)cc3[nH]2)cc1`, the IC50 turned out to be 15.1 µM. Compared with the last compound, the IC50 is about 2.4-fold higher.

Turning to `Cc1ccc2nc(-c3ccc(N(C)CCN4CCCCC4)cc3)[nH]c2c1` [drawing 13], the IC50 was 8.7 µM.

Compound `CN(CCN1CCCCC1)c1ccc(-c2nc3ccc(Cc4ccccc4)cc3[nH]2)cc1` showed a 50% inhibitory concentration (IC50) of 4.3 µM.

`CCCCc1ccc2nc(-c3ccc(N(C)CCN4CCCCC4)cc3)[nH]c2c1` returned an IC50 of 11.5 µM.

With `CN(CCN1CCCCC1)c1ccc(-c2nc3cc4ccccc4cc3[nH]2)cc1`, the half-inhibitory concentration (IC50) was determined as 12.1 µM.

`CN(CCN1CCCCC1)c1ccc(-c2nc3ccc(OCc4ccccc4)cc3[nH]2)cc1` displayed a half-inhibitory concentration (IC50) of 15.4 µM.

As for `CN(CCN1CCCCC1)c1ccc(-c2cc3cc(Cl)ccc3[nH]2)cc1`, the concentration for half-maximal inhibition (IC50) came to 9.9 µM. This IC50 is about 1.6-fold lower than that of the compound before.

In turn, `CN(CCN1CCCCC1)c1ccc(-c2nc3cc4c(cc3[nH]2)Cc2ccccc2-4)cc1` showed an IC50 of 20.7 µM. Against the preceding compound, the IC50 is about 2.1-fold higher.

Regarding `CCN(CC)CCN(CCN(CC)CC)c1ccc(-c2nc3cc(Cl)c(Cl)cc3[nH]2)cc1` [drawing 8], the half-inhibitory concentration (IC50) is 11.1 µM.

In turn, `Cc1cc2nc(-c3ccc(N(C)CCN4CCCCC4)cc3)[nH]c2cc1C` [drawing 14] returned an IC50 of 6.3 µM.

As to `CN(CCN1CCCCC1)c1ccc(-c2nc3ccccc3[nH]2)cc1`, the IC50 stood at 10.9 µM.

With `CN(CCN1CCCCC1)c1ccc(-c2nc3cc(Sc4ccc(Cl)c(Cl)c4)ccc3[nH]2)cc1`, the IC50 was 5.1 µM.

The compound `CN(CCN1CCCCC1)c1ccc(-c2nc3ccc(F)cc3[nH]2)cc1` registered an IC50 of 8.6 µM. This IC50 is about 1.7-fold higher than that of the compound before.

System in a further data set: not given
Assay: not given
Settings: not given
`Cc1cc2nc(-c3ccc(N(C)CCN4CCCCC4)cc3)[nH]c2cc1C` [Example 7, [4-(5,6-Dimethyl-1H-benzoimidazol-2-yl)-phenyl]-methyl-(2-piperidin-1-yl-ethyl)-amine] returned a melting point of 194 to 196 °C.

Consider `CN(CCN1CCCCC1)c1ccc(-c2nc3cc(Cl)c(F)cc3[nH]2)cc1` [Example 5, [4-(5-Chloro-6-fluoro-1H-benzoimidazol-2-yl)-phenyl]-methyl-(2-piperidin-1-yl-ethyl)-amine], for which the melting point was in the range of 167 to 168 °C.

The compound `COc1ccc2nc(-c3ccc(N(C)CCN4CCCCC4)cc3)[nH]c2c1.Cl.Cl` registered a melting point of 273 °C.

In turn, `CN(CCN1CCCCC1)c1ccc(-c2nc3ccc(Cl)cc3[nH]2)cc1` [Example 4, [4-[6-Chloro-1H-benzoimidazol-2-yl)-phenyl]-methyl-(2-piperidin-1-yl-ethyl)-amine] showed a melting point of 196 °C.

`CN(CCN1CCCCC1)c1ccc(C2=Nc3ccc(Cl)cc3C2)cc1` [Example 10, [4-(5-Chloro-3H-indol-2-yl)-phenyl]-methyl-(2-piperidin-1-yl-ethyl)-amine] gave a melting point of 192 °C.

Regarding `CN(CCN1CCCCC1)c1ccc(-c2nc3ccc(Cl)c(Cl)c3[nH]2)cc1` [Example 8, [4-(6,7-Dichloro-1H-benzoimidazol-2-yl)-phenyl]-methyl-(2-piperidin-1-yl-ethyl)-amine], the melting point is 164 °C.

`Cc1ccc2nc(-c3ccc(N(C)CCN4CCCCC4)cc3)[nH]c2c1` [Example 6, Methyl-[4-(6-methyl-1H-benzoimidazol-2-yl)-phenyl]-(2-piperidin-1-yl-ethyl)-amine] came in with a melting point of 165 °C.

The test system of another data set is T lymphocyte blast cells (CD3-Blasts). Kind of data set: CD3-Blast Chemotaxis Assay (transendothelial migration to MCP-1). To be noted: 10 μM compound; MCP-1 about 10 nM; ECV304 endothelial coated Transwells. The format is cell-based, human. The source says:
Recombinant human MCP-1 was obtained from Peprotech (Rockey Hill, N.J.). T lymphocyte blast cells (CD3-Blasts) were generated by standard protocols (Coligan, J. E., A. M. Kruisbeek, D. H. Macgulies, E. M. Shevach, and W. Strober, editors. 1992. Current Protocols in Immunology. John Wiley and Sons, New York 7.1.2, 7.10.1-7.10. 10). Briefly, human peripheral blood mononuclear cells (PBMC) were isolated from heparinized venous blood by Percoll density gradient centrifugation (d=1.088) at room temperature. RBCs were removed by hypotonic lysis or dextran sedimentation. Blast cells were generated by incubating 2×10^6 PBMC in 24-well tissue culture plates that were coated with 2.5 μg of an anti-CD3 monoclonal antibody (identified as TR66, a gift from Dr. A. Lanzivecchia; similar monoclonal antibody is HIT3a, from Parmingen #30111A) at 37° C. for 48 to 72 hours, and then transferring 12 wells to T25 or T75 flasks with RPMI (Roswell Park Memorial Institute 1640, a growth cell medium available from Gibco/RBL, Inc., New York)+10% FCS (fetal calf serum)+50 units/ml IL-2. The cells are expanded and cultured for up to 3 weeks. CD3-Blast chemotaxis was assessed no sooner than 3 to 4 days after transfer to the IL-2 containing medium using a modification of a transendothelial migration assay (Carr. M. W., S. J. Roth, B. Luther, S. S. Rose, and T. A. Springer. 1994. Monocyte chemoattractant protein 1 acts as a T-lymphocyte chemoattractant. Proc. Natl. Acad. Sci. USA 91:3652-6). The endothelial cells used for this assay were the endothelial cell line ECV304. (ECV304 was from the European Collection of Animal Cell Cultures, Porton Downs, UK, assession #92091712). Endothelial cells were cultured on 6.5 mm diameter Transwell culture inserts (Costar) with a […] pore size. […] Background migration was determined by counting cells that migrated in the absence of MCP-1 in the lower chamber. […] The percent inhibition by compounds of directed migration was determined by the following formula: [drawing 32] […]
Take “N-[4-(5,6-dichloro-1H-benzimidazol-2-yl)-phenyl]-N-(2-diethylaminoethyl)-N-methyl, N-diethyl-ethane-1,2-diamine [Example 3]”: the “% Inhibition of Chemotaxis at 10 μM” value is 95% and 102%.
